The test system of assay [1] is OCI-AML2 cells. The assay can be described thus: Western blot of SF3B1, Mcl-1S and Mcl-1L protein expression. The assay is classed as cell-based, human. As for the experimental part: Cells were plated at 2.5×10^5 cells per ml in 6-well plates and treated with drug, vehicle or siRNA at the indicated doses and time points. Cells were harvested, washed with PBS and lysed prior to preparation of protein extracts for western blotting.
More particularly, cells were lysed with RIPA buffer (#R0278, Sigma, St. Louis, Mo., United States of America) containing phosphatase inhibitor cocktails 2 and 3 (Sigma #P5726, #P0044) and protease inhibitor cocktail (#P8340, Sigma, St. Louis, Mo., United States of America). Protein was quantified using a bicinchoninic acid (BCA) protein assay kit (#23225, Pierce, Waltham, Mass., United States of America). Samples were resolved on a Bolt 4-12% SDS-PAGE gel (#NW00082, ThermoFisher Scientific, Waltham, Mass., United States of America) and transferred to PVDF membrane (#170-4274, Bio-Rad Laboratories, Hercules, Calif., United States of America). Antibodies were obtained from Cell Signaling Technology (Danvers, Mass., United States of America) unless indicated otherwise. Primary antibodies used were: Mcl-1 (#5453, RRID #AB 10694494), SF3B1 (#14434, RRID #AB 2798479), β-actin (#3700, RRID #AB_2242334) and AC (BD Biosciences #612302 (San Jose, California, United States of America), RRID #AB_399617). Secondary antibodies used were HRP-linked goat anti-mouse (#7076, RRID #AB_330924) or goat anti-rabbit IgG (#7074, RRID # AB_2099233). Clarity Max Western ECL Substrate (#1705062, Bio-Rad Laboratories, Hercules, Calif., United States of America) was added to visualize relative protein expression by chemiluminescence using the Bio-Rad ChemiDoc MP imaging system (Bio-Rad Laboratories, Hercules, Calif., United States of America). Quantification was done using Bio-Rad ImageLab 6.0.1 software (Bio-Rad Laboratories, Hercules, Calif., United States of America). For quantification, bands were normalized to β-actin as a loading control.

Assay [2] concerns the target T1, acid ceramidase (AC) (Homo sapiens, UniProt Q13510).
T1 construct: endogenous in cells; host or cells: HL-60/VCR, THP-1 and OCI-AML2 human AML cell lines
T1 sequence (Q13510 143-395 limits assumed): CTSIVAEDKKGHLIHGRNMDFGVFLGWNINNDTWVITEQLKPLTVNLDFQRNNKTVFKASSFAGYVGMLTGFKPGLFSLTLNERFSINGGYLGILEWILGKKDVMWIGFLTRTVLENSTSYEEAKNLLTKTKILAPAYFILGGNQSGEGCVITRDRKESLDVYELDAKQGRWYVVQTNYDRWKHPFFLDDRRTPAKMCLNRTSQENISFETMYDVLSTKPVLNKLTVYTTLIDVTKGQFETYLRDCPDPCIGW
T1 sequence (Q13510 22-142 limits assumed): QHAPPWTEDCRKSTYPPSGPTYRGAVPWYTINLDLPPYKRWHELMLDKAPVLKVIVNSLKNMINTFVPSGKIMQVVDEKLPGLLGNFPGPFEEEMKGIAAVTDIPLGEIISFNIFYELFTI
Kind of assay: Acid ceramidase activity assay (RBM14C12 fluorogenic substrate) in human AML cell lines. The settings on record: LCL204 5 or 10 μM vs SACLAC 1.25 or 2.5 μM; HL-60/VCR, THP-1, OCI-AML2. It is filed as cell-based. As for the experimental part:
Cells were seeded at 2×10^4 cells per well in 50 μl Acid ceramidase activity was measured at 24 hours using the RBM14C12 fluorogenic substrate as previously described (22,34).

The subject of assay [3] is hAML cell lines. Kind of assay: Venetoclax sensitivity of hAML cell lines. It is filed as cell-based, human. The settings on record: sensitive (MV4-11, MOLM-13, OCL-AML2) vs resistant (MM-6, THP-1, HL-60/VCR, OCI-AML3).
Experimental: Venetoclax sensitive cell lines can be co-treated with SACLAC (0.3 to 2.5 μM) and venetoclax (1 to 32 nM). […] Cell viability can be determined by MTS assay 24 hours after treatment. CompuSyn software (ComboSyn Inc., Paramus, N.J., United States of America) can be used to determine synergy. A combination index (CI) of >1, 1, and <1 indicates antagonism, additive effect, and synergism, respectively, with increasing synergism indicated by values approaching zero.

Here are results for 5 compounds from patent US20220387358A1, “CERAMIDE ANALOG SACLAC MODULATES SPHINGOLIPID LEVELS AND MCL-1 SPLICING TO INDUCE APOPTOSIS IN ACUTE MYELOID LEUKEMIA” (University of Virginia Patent Foundation, priority 2019, published 2022).

For `CN(C)CC[C@H](CSc1ccccc1)Nc1ccc(S(=O)(=O)NC(=O)c2ccc(N3CCN(Cc4ccccc4-c4ccc(Cl)cc4)CC3)cc2)cc1[N+](=O)[O-]` [ABT-737, 4-[4-[[2-(4-chlorophenyl)phenyl]methyl]piperazin-l-yl]-N-[4-[[(2R)-4-(dimethylamino)-1-phenylsulfanylbutan-2-yl]amino]-3-nitrophenyl]sulfonylbenzamide, reference compound], in assay [1] (ABT-737 75 nM, 24 hours, abrogated by Z-VAD-FMK 50 μM), the “Mcl-1 cleavage fragment (caspase-mediated)” value is on record as “smaller fragment of approximately 22 kDa”. Turning to `CCCCCCCCCCCCC/C=C/[C@@H](O)[C@H](CO)NC(=O)CCCCCCCCCCCCCCC` [C16 ceramide, reference compound], in assay [1] (C16 ceramide 20 μM, 48 hours), the SF3B1 protein entry is “reduction” and the “ratio of Mcl-1S to Mcl-1L” value was “increase”. For the compound `CCCCCCCCCCCCCCN[C@H](CO)[C@H](O)c1ccc([N+](=O)[O-])cc1` [LCL204, (1R, 2R)-2-N-(tetradecylamino)-1-(4′-nitrophenyl)-1,3-propandiol, reference compound], the “dose required to achieve similar AC inhibition as SACLAC” value in assay [2] was “four-fold higher dose”. Consider `CO[C@]1(C)C[C@@]2(CO2)[C@H](O)[C@@H](/C=C/C(C)=C/C[C@@H]2O[C@H](C)[C@H](NC(=O)/C=C\[C@H](C)OC(C)=O)C[C@@H]2C)O1` [Spliceostatin A, reference compound], for which the Mcl-1S protein entry in assay [1] (5, 10 or 20 nM, 6 hours) is on record as “dose-dependent increase”. Regarding `CC1(C)CCC(CN2CCN(c3ccc(C(=O)NS(=O)(=O)c4ccc(NCC5CCOCC5)c([N+](=O)[O-])c4)c(Oc4cnc5[nH]ccc5c4)c3)CC2)=C(c2ccc(Cl)cc2)C1` [Venetoclax], in assay [3], the “difference in sensitivity between venetoclax sensitive and resistant cell lines” value is > 100 fold.
